Experimental data taken from patent publication US7476526B2, “Method of using a gene conferring resistance to 4,5-dihydroxy-2-cyclopenten-1-one (DHCP) and identifying inhibitors of a polypeptide encoded by the gene” (priority 2000, dated 2009).
In brackets after ≈: the same amount, converted by molar mass.

Legend:
E. coli JM83 = assay: Colony formation ability of E. coli on LB plates containing DHCP; assay type: cell-based, Escherichia coli
Experimental: (§1) A. The JM83 cells were grown in LB medium up to Klett unit of 50 and DHCP was added at various concentrations (0-400 µM). After the growth reached to Klett unit of 90-100, cells were diluted with medium containing respective concentrations of DHCP and growth was further monitored. DHCP concentration: 0 . mu.M, open squares; 50 . mu.M, closed diamonds; 100 µM, open circles; 250 . mu.M, open diamonds; 400 . mu.M closed squares. [0023] B. Overnight grown cells of E. coli JM83 were diluted appropriately and plated on LB plates containing different concentrations of DHCP (0-350 . mu.M). The number of colonies on the plate without DHCP was taken as 100% and the other numbers were expressed as relative percentages.
To check the colony formation ability of E. coli at various concentrations of DHCP, cells grown overnight in LB medium were diluted appropriately and plated on LB plates containing DHCP (0-350 . mu.M). After incubation at 37. degree. C., the number of colonies on each plate were counted. The number of colonies on the control plate without DHCP was taken as 100% and the other numbers were expressed as relative percentages (FIG. 2B). In the presence of 300 µM DHCP, 100-fold decrease in the colony numbers was observed.

[1] = tested on: E. coli wild-type strain JM83; assay: Effect of DHCP on the growth of E. coli in LB medium (Klett units); assay type: cell-based, Escherichia coli; conditions: for effect on growth: LB medium
Experimental: as §1
The E. coli wild-type strain JM83 [F^-araΔ (lac-proAB) rpsL(st^r)](Yanisch-Perron et al., 1985) was grown in Luria broth (LB). Media were supplemented with ampicillin (final concentration of 50 . mu.g/ml) whenever required. To check the effect of DHCP on the growth of E. coli, cells grown overnight in LB medium were diluted into fresh LB medium. After the growth reached to the Klett unit of 50, DHCP was added at various concentrations (0-400 . mu.M) and growth was further monitored. After it reached to the Klett unit of 90-100, it was diluted I O-fold into media containing respective concentrations of DHCP. […] In the presence of 400 . mu.M DHCP, cell growth stopped after 4 h of incubation.

[2] = tested on: E. coli JM83 cells harboring pUC19; assay: Minimum inhibitory concentrations on LB plates, cells harboring pUC19; assay type: cell-based; conditions: Escherichia coli, cells with pUC19, 37 °C, 20 h, same for 3.5 × 10^5 and 3.5 × 10^3 cells
Experimental: (§2) The E. coli wild-type cells harboring pUC19 or pSP007 plasmid were grown overnight in LB medium containing ampicillin. The cells were diluted 10- and 1000-times, and 5 µl of each dilution (corresponding to 3.5×10^5 cells and 3.5×10^3 cells, respectively) was spotted on LB plates containing serial dilutions of kanamycin, chloramphenicol, spectinomycin, tetracycline and DHCP. Plates were incubated at 37° C. for 20 h. […] The MIC values for cells harboring pUC19 and pSP007 were same for spectinomycin, chloramphenicol and tetracycline. The MIC value was two times higher for kanamycin for the cells harboring pSP007 than the cells with pUC19. The MIC value for DHCP on the other hand was 8 times higher for the cells-harboring pSP007 than that for the cells with pUC19.
(§3) MICs for both dilutions of the cells (3.5×10^5 and 3.5×10^3) were the same.

[3] = tested on: E. coli JM83 cells harboring pSP007; assay: Minimum inhibitory concentrations on LB plates, cells harboring pSP007 (dep, ORF389); assay type: cell-based, Escherichia coli; conditions: for MIC: Escherichia coli, cells with pSP007, LB plates, 37 °C, 20 h, same for 3.5 × 10^5 and 3.5 × 10^3 cells; for MIC value for cells harboring pSP007 relative to cells with pUC19: pSP007 versus pUC19
Experimental: as §2, §3

Structure (SMILES) | MIC [2] [µg/mL] | MIC [3] [µg/mL] | MIC value for cells harboring pSP007 relative to cells with pUC19 [3] | also measured
O=C1C=CC(O)C1O (stereo not drawn) [DHCP, 4,5-dihydroxy-2-cyclopenten-1-one] | 25 (≈ 219 µM) | 200 (≈ 1750 µM) | 8 times | decrease in the colony numbers (E. coli JM83; 300 μM DHCP, LB plates, 37 °C): 100 fold; colony formation (E. coli JM83; 350 μM DHCP, 1×10^4 cells plated on LB medium): no colonies were obtained; concentration at which DHCP inhibits cell growth (E. coli JM83; E. coli): ≥ 350 µM; effect on growth ([1]; 50 μM DHCP): growth was slowed after 3 h of incubation; time to reach the maximum density ([1]; 50 μM DHCP, similar to that without DHCP): 8 h; effect on growth ([1]; 100 μM DHCP): grew more slowly after 3 h incubation; maximum cell density ([1]; 100 μM DHCP, versus without DHCP): lower than that without DHCP; time after which cells stopped growing ([1]; 250 μM DHCP): 5 h; length of elongated cells (filaments) relative to control cells ([1]; 250 μM DHCP for 8 h, microscopic examination): approximately 15 fold; effect on growth ([1]; 250 μM DHCP): growth was severely impaired after 3 h of incubation; time after which cell growth stopped ([1]; 400 μM DHCP): 4 h
O=C(N[C@H](CO)[C@H](O)c1ccc([N+](=O)[O-])cc1)C(Cl)Cl [chloramphenicol] | 6.25 (≈ 19.3 µM) | 6.25 (≈ 19.3 µM) | same | –
NC[C@H]1O[C@H](O[C@H]2[C@H](O)[C@@H](O[C@H]3O[C@H](CO)[C@@H](O)[C@H](N)[C@H]3O)[C@H](N)C[C@@H]2N)[C@H](O)[C@@H](O)[C@@H]1O [kanamycin] | 25 (≈ 51.6 µM) | 50 (≈ 103 µM) | – | –
CN[C@@H]1[C@H](O)[C@H](NC)[C@H]2O[C@@]3(O)C(=O)C[C@@H](C)O[C@H]3O[C@@H]2[C@H]1O [spectinomycin] | 12.5 (≈ 37.6 µM) | 12.5 (≈ 37.6 µM) | same | –
CN(C)[C@@H]1C(O)=C(C(N)=O)C(=O)[C@@]2(O)C(O)=C3C(=O)c4c(O)cccc4[C@@](C)(O)[C@H]3C[C@@H]12 [tetracycline] | 3.12 (≈ 7.03 µM) | 3.12 (≈ 7.03 µM) | – | –
